Measured values taken from patent US20240409536A1, “COMPOUNDS AND METHODS FOR MODULATING SPLICING” (REMIX THERAPEUTICS INC., priority 2021, published 2024).

Tests used:
HTT mRNA [1] = experiment: Splicing RT-qPCR assay, HTT canonical (CJ) and alternative (AJ) junction mRNA; format: cell-based; conditions: Homo sapiens, A673 or K562 cells, 24 hours; for IC50: decrease in canonical junction mRNA; for AC50: increase in alternative junction mRNA
Procedure, shortened: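 Housekeeping-normalized RT-qPCR of canonical and alternative junctions in lysates of A673 or K562 cells exposed 24 h to compound (11 points, 3-fold steps, max 10 uM).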

HTT mRNA [2] = experiment: Gene panel canonical junction qPCR assay, HTT CJ mRNA decrease; format: cell-based, human; conditions: Homo sapiens, canonical junction qPCR, read-out: HTT IC50 (decrease in CJ mRNA levels)
Procedure, shortened: (§1)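 A673 or K562 cells were treated with compound, and lysates underwent cDNA synthesis and qPCR with a CY5 5′-nuclease probe or primer spanning the canonical exon junction. ΔCt versus GAPDH, GUSB or PPIA was normalized to DMSO (2^(−ΔΔCt)), converted to percentage response and fitted four-parameter logistic for IC50.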

Target C mRNA = experiment: Gene panel canonical junction qPCR assay, Target C CJ mRNA decrease; format: cell-based; conditions: Homo sapiens, canonical junction qPCR, read-out: Target C IC50 (decrease in CJ mRNA levels)
Procedure, shortened: as §1

K562 cells = experiment: Cell Titer Glo 2.0 cell viability assay in K562 cells; conditions: 72 hours

SMILES	IC50 (HTT mRNA [1])	IC50 (HTT mRNA [2])	IC50 (Target C mRNA)	AC50 (HTT mRNA [1])	Viability (K562 cells)
Cc1cn2cc(NC(=O)c3ccc(N4C[C@@H](C5CC5)N[C@@H](C)C4)c4nccnc34)cc(F)c2n1 [Compound 267, 8-((3R,5S)-3-cyclopropyl-5-methylpiperazin-1-yl)-N-(8-fluoro-2-methylimidazo[1,2-a]pyridin-6-yl)quinoxaline-5-carboxamide]	> 10 µM	> 10 µM	1 to 10 µM	> 10 µM	B (B represents 100-1000 nM)
Cc1cn2cc(NC(=O)c3ccc(N4CCNC5(CC5)C4)c4cccnc34)cc(F)c2n1 [Compound 341]	1 to 10 µM	1 to 10 µM	1 to 10 µM	1 to 10 µM	B (B represents 100-1000 nM)
Cc1cn2cc(NC(=O)c3ccc(N4C[C@@H](C)N[C@@H](C)C4)c4cncnc34)cc(F)c2n1 [Compound 302]	1 to 10 µM	1 to 10 µM	1 to 10 µM	1 to 10 µM	C (C represents 1000-9999 nM)
Cc1cn2cc(NC(=O)c3ccc(N4C[C@@H](C)N[C@@H](C)C4)c4nccnc34)cc(C#N)c2n1 [Compound 294]	1 to 10 µM	1 to 10 µM	> 10 µM	> 10 µM	D (D represents greater than 10 μM in K562 cells)

Now from value to compound, other results behind:

IC50 (HTT mRNA [1])	IC50 (HTT mRNA [2])	IC50 (Target C mRNA)	SMILES	AC50 (HTT mRNA [1])	Viability (K562 cells)
1 to 10 µM	1 to 10 µM	1 to 10 µM	Cc1cn2cc(NC(=O)c3ccc(N4CCN5CCOC[C@H]5C4)c4nccnc34)cc(F)c2n1 [Compound 256, (R)—N-(8-fluoro-2-methylimidazo[1,2-a]pyridin-6-yl)-8-(hexahydropyrazino[2,1-c][1,4]oxazin-8(1H)-yl)quinoxaline-5-carboxamide]	1 to 10 µM	C (C represents 1000-9999 nM)
1 to 10 µM	1 to 10 µM	1 to 10 µM	Cc1cn2cc(NC(=O)c3ccc(N4CCN[C@@H](CF)C4)c4nccnc34)cc(F)c2n1 [Compound 367]	1 to 10 µM	C (C represents 1000-9999 nM)
1 to 10 µM	1 to 10 µM	1 to 10 µM	Cc1cn2cc(NC(=O)c3ccc(N4C[C@@H](C)N[C@@H](C)C4)c4nccnc34)nc(C)c2n1 [Compound 288]	1 to 10 µM	C (C represents 1000-9999 nM)
